According to patent US8633242B2, “Benzylidene indanones and processes for preparation and use thereof” (Council of Scientific and Industrial Research, priority 2011, dated 2014):

Tests used:
DU-145 (prostate) = assay: Sulphorhodamine B cytotoxicity assay, DU-145; assay type: cell-based, human; set-up: key to Human cancer cell lines IC50, DU-145 (prostate): Inactive: inactive, if IC50 > 100 μM; settings: SRB assay, 48 hours incubation; for IC50: Homo sapiens, DU-145, read-out: Human cancer cell lines IC50, DU-145 (prostate)
Protocol: (§1) The benzylidene analogues were evaluated by Sulphorhodamine B Assay as per reported method [Skehan et al., J. Natl. Cancer Inst. 1990, 82, 1107]. The human cancer cell lines procured from National Cancer institute, Frederick, U.S.A. were used in present study. Cells were grown in tissue culture flasks in complete growth medium (RPMI-1640 medium with 2 mM glutamine, pH 7.4 supplemented with 10% fetal bovine serum, 100 μg/ml streptomycin and 100 units/ml penicillin) in a carbon dioxide incubator (37° C., 5% CO2, 90% RH). The cells at subconfluent stage were harvested from the flask by treatment with trypsin (0.05% in PBS (pH 7.4) containing 0.02% EDTA). Cells with viability of more than 98%, as determined by trypan blue exclusion, were used for determination of cytotoxicity. The cell suspension required concentration of cells was prepared in complete growth medium. Stock solution of 2×10^−2 M of compounds were prepared in DMSO and further dilution was carried out complete growth medium containing 50 μg/ml of gentamycin to obtained working test solution of required concentration. In vitro cytotoxicity against various human cancer cell lines was determined using 96-well cell culture plates. The 100 μl of cell suspension was added to each well of the 96-well cell culture plates. The cells were allowed to grow in CO2 incubator (37° C., 5% CO2, 90% RH) for 24 hours. The test materials in complete growth medium (100 μl) were added after 24 hours incubation to the wells containing cell suspension. The plates were further incubated for 48 hours (37° C. in an atmosphere of 5% CO2 and 90% relative humidity) in a carbon dioxide incubator after addition of test material and then the cell growth was stopped by gently layering trichloroacetic acid (50% TCA, 50 μl) on top of the medium in all the wells. The plates were incubated at 4° C. for one hour to fix the cells attached to the bottom of the wells. The liquid of all the wells was gently pipetted out and discarded. The plates were washed five times with distilled water to remove TCA, growth medium low molecular weight metabolites, serum proteins etc. and air-dried. Cell growth was measured by staining with sulforhodamine B dye. The adsorbed dye was dissolved in Tris-HCl Buffer (100 μl/well, 0.01M, pH 10.4) and plates were gently stirred for 10 minutes on a mechanical stirrer. The optical density (OD) was recorded on ELISA reader at 540 nm. 5-Fluorouracil, Paclitaxel (Taxol), Mitomycin-c and Adriamycin were used as positive controls.

HCT (Colon) = assay: Sulphorhodamine B cytotoxicity assay, HCT; assay type: cell-based, human; set-up: key to Human cancer cell lines IC50, HCT (Colon): Inactive: inactive, if IC50 > 100 μM; settings: SRB assay, 48 hours incubation; for IC50: Homo sapiens, read-out: Human cancer cell lines IC50, HCT (Colon)
Protocol: as §1

PC-3 (prostate) = assay: Sulphorhodamine B cytotoxicity assay, PC-3; assay type: cell-based, human; set-up: key to Human cancer cell lines IC50, PC-3 (prostate): Inactive: inactive, if IC50 > 100 μM; settings: SRB assay, 48 hours incubation; for IC50: Homo sapiens, read-out: Human cancer cell lines IC50, PC-3 (prostate)
Protocol: as §1

THP-1 (Leukemia) = assay: Sulphorhodamine B cytotoxicity assay, THP-1; assay type: cell-based, human; set-up: key to Human cancer cell lines IC50, THP-1 (Leukemia): Inactive: inactive, if IC50 > 100 μM; settings: for Human cancer cell lines IC50, THP-1 (Leukemia) / IC50: SRB assay, 48 hours incubation; for IC50: Homo sapiens, THP-1, read-out: Human cancer cell lines IC50, THP-1 (Leukemia)
Protocol: as §1

MCF-7 (Breast cancer) = assay: Sulphorhodamine B cytotoxicity assay, MCF-7; assay type: cell-based, human; set-up: key to Human cancer cell lines IC50, MCF-7 (Breast cancer): Inactive: inactive, if IC50 > 100 μM; settings: for IC50: Homo sapiens, MCF7, read-out: Human cancer cell lines IC50, MCF-7 (Breast cancer)
Protocol: as §1

A549 (Lung) = assay: Sulphorhodamine B cytotoxicity assay, A549; assay type: cell-based, human; set-up: key to Human cancer cell lines IC50, A549 (Lung): Inactive: inactive, if IC50 > 100 μM; settings: SRB assay, 48 hours incubation; for IC50: Homo sapiens, A549, read-out: Human cancer cell lines IC50, A549 (Lung)
Protocol: as §1

tubulin protein = assay: In-vitro tubulin polymerisation inhibition assay; assay type: biochemical; set-up: key to Tubulin polymerisation inhibition IC50: Inactive: inactive, if IC50 > 10 μM; settings: for Tubulin polymerisation inhibition IC50 / IC50: tubulin 3 mg/mL, 37° C., 340 nm, 1 h; for IC50: read-out: Tubulin polymerisation inhibition IC50
Protocol: The tubulin polymerization experiment was performed using ‘assay kit’ (Cytoskeleton USA) following manufacturer's protocol based on the procedure described by of Shelanski et al. (1973) and Lee et al. (1977). Briefly, tubulin protein (3 mg/mL) in tubulin polymerization buffer (80 mM PIPES, pH 6.9, 2 mM MgCl2, 0.5 mM EGTA, 1 mM GTP and 15% glycerol) was placed in pre-warmed 96-well microtiter plates at 37° C. in the presence of test compounds with variable concentrations. All samples were mixed well and polymerization was monitored kinetically at 340 nm every min for 1 h using a Spectramax plate reader. Podophyllotoxin and etoposide were used as positive controls and DMSO as negative control. The IC50 value was determined from dose-dependent analysis and is defined as the concentration that inhibits the rate of polymerization by 50%.
Podophyllotoxin and etoposide, standard tubulin polymerisation inhibitors were used as positive controls.

HeLa (Cervix) = assay: Sulphorhodamine B cytotoxicity assay, HeLa; assay type: cell-based, human; set-up: key to Human cancer cell lines IC50, HeLa (Cervix): Inactive: inactive, if IC50 > 100 μM; settings: SRB assay, 48 hours incubation
Protocol: as §1

SMILES | Tubulin polymerisation inhibition IC50 (tubulin protein) | melting point [°C] | IC50 (tubulin protein) [µM] | Human cancer cell lines IC50, DU-145 (prostate) (DU-145 (prostate)) | IC50 (HCT (Colon)) [µM] | IC50 (PC-3 (prostate)) [µM] | Human cancer cell lines IC50, THP-1 (Leukemia) (THP-1 (Leukemia)) | anticancer activity against human breast cancer cells (MCF-7), in words (MCF-7 (Breast cancer)) | IC50 (MCF-7 (Breast cancer); SRB assay, 48 hours incubation) [µM] | IC50 (A549 (Lung)) [µM] | Human cancer cell lines IC50, HeLa (Cervix) (HeLa (Cervix)) | Human cancer cell lines IC50, HCT (Colon) (HCT (Colon)) | IC50 (THP-1 (Leukemia)) [µM] | inhibition of tubulin polymerisation, in words (tubulin protein) | Human cancer cell lines IC50, PC-3 (prostate) (PC-3 (prostate)) | IC50 (DU-145 (prostate)) [µM] | activity against leukemia cell lines (THP), in words (THP-1 (Leukemia)) | IC50 (HeLa (Cervix); Homo sapiens, HeLa, read-out: Human cancer cell lines IC50, HeLa (Cervix)) [µM] | Human cancer cell lines IC50, MCF-7 (Breast cancer) (MCF-7 (Breast cancer); SRB assay, 48 hours incubation) | Human cancer cell lines IC50, A549 (Lung) (A549 (Lung))
COc1cc(C2/C(=C/c3ccc(OC)c(OC)c3OC)C(=O)c3cc(OC)c(OC)c(OC)c32)cc(OC)c1OC (stereo not drawn) [Compound 15, 2-(2″,3″,4″-trimethoxybenzylidene), 3-(3′,4′,5′-trimethoxyphenyl)-4,5,6-trimethoxy, indan-1-one] | Inactive | 163 to 165 | – | Inactive | 79.6 | 85 | Inactive | potent anticancer activity | 8.88 | 93 | Inactive | – | – | – | – | – | – | – | – | –
COc1cc(OC)c(OC)cc1/C=C1\C(=O)c2cc(OC)c(OC)c(OC)c2C1c1cc(OC)c(OC)c(OC)c1 (stereo not drawn) [Compound 16, 2-(2″,4″,5″-trimethoxybenzylidene), 3-(3′,4′,5′-trimethoxyphenyl)-4,5,6-trimethoxy indan-1-one] | – | 203 to 205 | 4.21 | Inactive | – | 64.9 | – | – | 56.5 | 87.2 | Inactive | Inactive | 81.5 | strong inhibition | – | – | – | – | – | –
COc1cc(C2/C(=C/c3cccc4c3OCO4)C(=O)c3cc(OC)c(OC)c(OC)c32)cc(OC)c1OC (stereo not drawn) [Compound 17, 2-(2″,3″-methylenedioxybenzlidene), 3-(3′,4′,5′-trimethoxyphenyl)-4,5,6-trimethoxy indan-1-one] | Inactive | 180 to 182 | – | Inactive | 45.9 | – | Inactive | – | 57.2 | 82.2 | Inactive | – | – | – | Inactive | – | – | – | – | –
COc1cc(C2/C(=C/c3ccc(F)cc3)C(=O)c3cc(OC)c(OC)c(OC)c32)cc(OC)c1OC (stereo not drawn) [Compound 18, 2-(4″-fluorobenzylidene), 3-(3′,4′,5′-trimethoxyphenyl)-4,5,6-trimethoxy indan-1-one] | – | 156 to 158 | 0.73 | – | – | 38.6 | – | potent anticancer activity | 0.68 | 26.9 | – | Inactive | 2.88 | strong inhibition | – | 54.1 | potent activity | 66.5 | – | –
COc1ccc(/C=C2\C(=O)c3cc(OC)c(OC)c(OC)c3C2c2cc(OC)c(OC)c(OC)c2)c(OC)c1 (stereo not drawn) [Compound 21, 2-(2″,4″-dimethoxybenzylidene), 3-(3′,4′,5′-trimethoxyphenyl)-4,5,6-trimethoxy indan-1-one] | – | 191 to 192 | 3.04 | – | 11.1 | 71.7 | Inactive | potent anticancer activity | 1 | 71.6 | Inactive | – | – | strong inhibition | – | 2.04 | – | – | – | –

The next lines start with results.

Tubulin polymerisation inhibition IC50 (tubulin protein) | melting point [°C] | IC50 (tubulin protein) [µM] | SMILES | Human cancer cell lines IC50, DU-145 (prostate) (DU-145 (prostate)) | IC50 (HCT (Colon)) [µM] | IC50 (PC-3 (prostate)) [µM] | Human cancer cell lines IC50, THP-1 (Leukemia) (THP-1 (Leukemia)) | anticancer activity against human breast cancer cells (MCF-7), in words (MCF-7 (Breast cancer)) | IC50 (MCF-7 (Breast cancer); SRB assay, 48 hours incubation) [µM] | IC50 (A549 (Lung)) [µM] | Human cancer cell lines IC50, HeLa (Cervix) (HeLa (Cervix)) | Human cancer cell lines IC50, HCT (Colon) (HCT (Colon)) | IC50 (THP-1 (Leukemia)) [µM] | inhibition of tubulin polymerisation, in words (tubulin protein) | Human cancer cell lines IC50, PC-3 (prostate) (PC-3 (prostate)) | IC50 (DU-145 (prostate)) [µM] | activity against leukemia cell lines (THP), in words (THP-1 (Leukemia)) | IC50 (HeLa (Cervix); Homo sapiens, HeLa, read-out: Human cancer cell lines IC50, HeLa (Cervix)) [µM] | Human cancer cell lines IC50, MCF-7 (Breast cancer) (MCF-7 (Breast cancer); SRB assay, 48 hours incubation) | Human cancer cell lines IC50, A549 (Lung) (A549 (Lung))
– | 188 to 190 | 0.6 | COc1cc(C2/C(=C/c3ccc(C(F)(F)F)cc3)C(=O)c3cc(OC)c(OC)c(OC)c32)cc(OC)c1OC (stereo not drawn) [Compound 20, 2-(4″-trifluoromethylbenzylidene), 3-(3′,4′,5′-trimethoxyphenyl)-4,5,6-trimethoxy indan-1-one] | Inactive | 92 | 27.9 | – | – | 68.9 | 61.5 | Inactive | – | 8.67 | strong inhibition | – | – | potent activity | – | – | –
Inactive | 188 to 190 | – | COc1cc(C2/C(=C/c3ccc(OCc4ccccc4)cc3)C(=O)c3cc(OC)c(OC)c(OC)c32)cc(OC)c1OC (stereo not drawn) [Compound 22, 2-(4″-benzyloxybenzylidene), 3-(3′,4′,5′-trimethoxyphenyl)-4,5,6-trimethoxy indan-1-one] | – | – | 78.9 | Inactive | – | – | – | Inactive | Inactive | – | – | – | 78.9 | – | – | Inactive | Inactive
